Laboratory results from patent US9586958B2, “Prodrug derivatives of substituted triazolopyridines” (BAYER PHARMA AKTIENGESELLSCHAFT, priority 2013, dated 2017).
Counter-ions that a name gives are not always drawn.

Legend:
[1] = Stability in buffer at pH 7.4 (HPLC); type: physicochemical; conditions: buffer pH 7.4, 37° C.
Protocol: 0.3 mg of the test compound are solved in 0.1 ml dimethylsulfoxide and 0.4 ml acetonitrile. For complete dissolution the HPLC vial with the sample solution is sonified for about 20 seconds. Then 1.0 ml of the buffer solution is added, and the sample is again treated in the ultrasonic bath.
90 g of sodium chloride, 13.61 g of potassium dihydrogen phosphate and 83.35 g of 1 M sodium hydroxide solution are made up to 1 liter with Millipore water and then diluted 1:10.
10 μl portions of the sample solution are analysed by HPLC to determine the amount of the test compound over a period of 24 hours at 37° C. The peak areas in percentage are used for quantification.
Agilent 1100 with DAD (G1315B), binary pump (G1312A), autosampler (G1329A), column oven (G1316A), thermostat (G1330B); column: Kromasil 100 C18, 250 mm×4 mm, 5 μm; column temperature: 37° C.; eluent A: water+5 ml of perchloric acid/liter, eluent B: acetonitrile.
The ratio of the peak areas (F) at different time points in relation to the peak areas at the starting time are shown in Table 2 for representative examples: […]

[2] = In vitro stability in rat plasma (HPLC detection); type: in vitro ADME; conditions: 37° C.
Protocol: 1 mg of test compound is dissolved in 1.25 ml dimethylsulfoxide. Then 1.25 ml water are added. 0.5 ml of this sample solution are mixed with 0.5 ml heparinized and 37° C. warm plasma (wistar rat plasma or human plasma). A first sample (10 μl) is immediately taken for HPLC analysis. In the period up to 4 h after the start of incubation further 10 μl aliquots are taken after 30, 60, 90, 120 and 240 minutes and the amount of the test compound is determined.
Agilent 1100 with DAD (G1315A), binary pump (G1312A), autosampler (G1329A), column oven (G1316A), thermostat (G1330B); column: Kromasil 100 C18, 250 mm×4 mm, 5 μm; column temperature: 45° C.; eluent A: water+5 ml of perchloric acid/liter, eluent B: acetonitrile.

| SMILES | % Test Compound after 24 h [F(t = 24 h) × 100/F(t = 0 h)] [1] [%] | % Test Compound after 4 h [F(t = 24 h) × 100/F(t = 0 h)] ([2]; hydrochloride) [%] | % Test Compound after 4 h [F(t = 24 h) × 100/F(t = 0 h)] [2] [%] | % Test Compound after 24 h [F(t = 24 h) × 100/F(t = 0 h)] ([1]; measured for formic acid salt) |
| --- | --- | --- | --- | --- |
| COc1cc(S(C)(=O)=O)ccc1N(C(=O)OC(C)OC(=O)[C@@H](N)C(C)(C)C)c1nc2ccc(-c3ccc(NC(=O)[C@H](C)c4ccc(F)cc4)cc3)cn2n1.Cl (single isomer, unassigned) [Example 3.3, (1R or 1S)-1-({[6-(4-{[(2R)-2-(4-fluorophenyl)propanoyl]amino}phenyl)[1,2,4]triazolo[1,5-α]pyridin-2-yl][2-methoxy-4-(methylsulfonyl)phenyl]carbamoyl}oxy)ethyl-3-methyl-L-valinate hydrochloride] | 0.0 | 22 | – | – |
| COc1cc(S(C)(=O)=O)ccc1N(C(=O)OCOC(=O)[C@@H](NC(=O)[C@@H](N)C(C)C)C(C)C)c1nc2ccc(-c3ccc(NC(=O)[C@H](C)c4ccc(F)cc4)cc3)cn2n1 [Example 2.3, ({[6-(4-{[(2R)-2-(4-fluorophenyl)propanoyl]amino}phenyl)[1,2,4]triazolo[1,5-α]pyridin-2-yl][2-methoxy-4-(methylsulfonyl)phenyl]carbamoyl}oxy)methyl L-valyl-L-valinate hydrochloride] | 16 | – | 37 | – |
| COc1cc(S(C)(=O)=O)ccc1N(C(=O)OC(OC(=O)[C@@H](N)C(C)(C)C)C(C)C)c1nc2ccc(-c3ccc(NC(=O)[C@H](C)c4ccc(F)cc4)cc3)cn2n1.Cl (mixture of isomers) [Example 5.1, (1RS)-1-({[6-(4-{[(2R)-2-(4-fluorophenyl)propanoyl]amino}phenyl)[1,2,4]triazolo[1,5-α]pyridin-2-yl][2-methoxy-4-(methylsulfonyl)phenyl]carbamoyl}oxy)-2-methylpropyl 3-methyl-L-valinate hydrochloride] | 21 | – | 19 | – |
| COc1cc(S(C)(=O)=O)ccc1N(C(=O)OC(C)OC(=O)[C@@H](N)C(C)(C)C)c1nc2ccc(-c3ccc(NC(=O)[C@H](C)c4ccc(F)cc4)cc3)cn2n1.Cl (single isomer, unassigned) [Example 3.4, (1S or 1R)-1-({[6-(4-{[(2R)-2-(4-fluorophenyl)propanoyl]amino}phenyl)[1,2,4]triazolo[1,5-α]pyridin-2-yl][2-methoxy-4-(methylsulfonyl)phenyl]carbamoyl}oxy)ethyl-3-methyl-L-valinate hydrochloride] | 0.0 | 29 | – | – |
| CNCC(=O)N(c1nc2ccc(-c3ccc(NC(=O)[C@H](C)c4ccc(F)cc4)cc3)cn2n1)c1ccc(S(C)(=O)=O)cc1OC.O=C(O)C(F)(F)F [Example 8.1, (2R)-2-(4-fluorophenyl)-N-[4-(2-{[2-methoxy-4-(methylsulfonyl)phenyl](N-methylglycyl)amino}[1,2,4]triazolo[1,5-α]pyridin-6-yl)phenyl]propanamide trifluoroacetate] | – | – | 57 | – |
| C[C@@H](C(=O)Nc1ccc(-c2ccc3nc(N(C(=O)OCOC(=O)[C@@H](N)C(C)(C)C)c4ccc(C(=O)N5CC(F)C5)cc4OCC(F)(F)F)nn3c2)cc1)c1ccc(F)cc1.Cl [Example 6.3, [({4-[(3-fluoroazetidin-1-yl)carbonyl]-2-(2,2,2-trifluoroethoxy)phenyl}[6-(4-{[(2R)-2-(4-fluorophenyl)propanoyl]amino}phenyl)[1,2,4]triazolo[1,5-α]pyridin-2-yl]carbamoyl)oxy]methyl 3-methyl-L-valinate hydrochloride] | 0.0 | – | 0.0 | – |
| COc1cc(S(C)(=O)=O)ccc1N(C(=O)OCOC(=O)[C@@H](N)C(C)C)c1nc2ccc(-c3ccc(NC(=O)[C@H](C)c4ccc(F)cc4)cc3)cn2n1 [Example 1.2, ({[6-(4-{[(2R)-2-(4-fluorophenyl)propanoyl]amino}phenyl)[1,2,4]triazolo[1,5-α]pyridin-2-yl][2-methoxy-4-(methylsulfonyl)phenyl]carbamoyl}oxy)methyl L-valinate hydrochloride] | 0.0 | – | 0.0 | – |
| C[C@@H](C(=O)Nc1ccc(-c2ccc3nc(N(C(=O)OCOC(=O)[C@@H](N)C(C)(C)C)c4ccc(S(C)(=O)=O)cc4OCC(F)(F)F)nn3c2)cc1)c1ccc(F)cc1.Cl [Example 6.1, ({[6-(4-{[(2R)-2-(4-fluorophenyl)propanoyl]amino}phenyl)[1,2,4]triazolo[1,5-α]pyridin-2-yl][4-(methylsulfonyl)-2-(2,2,2-trifluoroethoxy)phenyl]carbamoyl}oxy)methyl 3-methyl-L-valinate hydrochloride] | 0.0 | – | 4 | – |
| COc1cc(S(C)(=O)=O)ccc1N(C(=O)OC(OC(=O)C(C)(C)N)C(C)C)c1nc2ccc(-c3ccc(NC(=O)[C@H](C)c4ccc(F)cc4)cc3)cn2n1.Cl (mixture of isomers) [Example 5.5, (1RS)-1-({[6-(4-{[(2R)-2-(4-fluorophenyl)propanoyl]amino}phenyl)[1,2,4]triazolo[1,5-α]pyridin-2-yl][2-methoxy-4-(methylsulfonyl)phenyl]carbamoyl}oxy)-2-methylpropyl-2-methylalaninate hydrochloride] | – | – | 33 | – |
| CC(C)[C@H](N)C(=O)OCOC(=O)N(c1nc2ccc(-c3ccc(NC(=O)[C@H](C)c4ccc(F)cc4)cc3)cn2n1)c1ccc(S(C)(=O)=O)cc1OCC(F)(F)F.Cl [Example 6.2, ({[6-(4-{[(2R)-2-(4-fluorophenyl)propanoyl]amino}phenyl)[1,2,4]triazolo[1,5-α]pyridin-2-yl][4-(methylsulfonyl)-2-(2,2,2-trifluoroethoxy)phenyl]carbamoyl}oxy)methyl L-valinate hydrochloride] | – | – | 6 | – |
| CC[C@H](C)[C@H](N)C(=O)OC(C)OC(=O)N(c1nc2n(n1)CC(c1ccc(NC(=O)[C@H](C)c3ccc(F)cc3)cc1)C=C2)c1ccc(S(C)(=O)=O)cc1OC.Cl (single isomer, unassigned) [Example 3.6, (1S or 1R)-1-({[6-(4-{[(2R)-2-(4-fluorophenyl)propanoyl]amino}phenyl)[1,2,4]triazolo[1,5-α]pyridin-2-yl][2-methoxy-4-(methylsulfonyl)phenyl]carbamoyl}oxy)ethyl-isoleucinate hydrochloride] | 0.0 | – | – | – |
| COc1cc(S(C)(=O)=O)ccc1N(C(=O)OCOP(=O)(O)O)c1nc2ccc(-c3ccc(NC(=O)[C@H](C)c4ccc(F)cc4)cc3)cn2n1 [Example 1.6, (phosphonooxy)methyl [6-(4-{[(2R)-2-(4-fluorophenyl)propanoyl]amino}phenyl)[1,2,4]triazolo[1,5-α]pyridin-2-yl][2-methoxy-4-(methylsulfonyl)phenyl]carbamate] | – | – | 0.0 | – |
| CC[C@H](C)[C@H](N)C(=O)OC(C)OC(=O)N(c1nc2ccc(-c3ccc(NC(=O)[C@H](C)c4ccc(F)cc4)cc3)cn2n1)c1ccc(S(C)(=O)=O)cc1OC.Cl (single isomer, unassigned) [Example 3.7, (1R or 1S)-1-({[6-(4-{[(2R)-2-(4-fluorophenyl)propanoyl]amino}phenyl)[1,2,4]triazolo[1,5-α]pyridin-2-yl][2-methoxy-4-(methylsulfonyl)phenyl]carbamoyl}oxy)ethyl-L-isoleucinate hydrochloride] | 0.0 | – | – | – |
| CC[C@H](C)[C@H](N)C(=O)OC(C)OC(=O)N(c1nc2ccc(-c3ccc(NC(=O)[C@H](C)c4ccc(F)cc4)cc3)cn2n1)c1ccc(S(C)(=O)=O)cc1OC.Cl (mixture of isomers) [Example 3.5, (1RS)-1-({[6-(4-{[(2R)-2-(4-fluorophenyl)propanoyl]amino}phenyl)[1,2,4]triazolo[1,5-α]pyridin-2-yl][2-methoxy-4-(methylsulfonyl)phenyl]carbamoyl}oxy)ethyl-L-isoleucinate hydrochloride] | – | – | 19 | – |
| COc1cc(S(C)(=O)=O)ccc1N(C(=O)OCOC(=O)C1CCNCC1)c1nc2ccc(-c3ccc(NC(=O)[C@H](C)c4ccc(F)cc4)cc3)cn2n1.O=C(O)C(F)(F)F [Example 1.1, ({[6-(4-{[(2R)-2-(4-fluorophenyl)propanoyl]amino}phenyl)[1,2,4]triazolo[1,5-α]pyridin-2-yl][2-methoxy-4-(methylsulfonyl)phenyl]carbamoyl}oxy)methyl piperidine-4-carboxylate trifluoroacetate] | – | – | – | 35.0 *) % |
| COc1cc(S(C)(=O)=O)ccc1N(C(=O)OCOC(=O)[C@@H](N)CC(C)C)c1nc2ccc(-c3ccc(NC(=O)[C@H](C)c4ccc(F)cc4)cc3)cn2n1.Cl [Example 1.3, ({[6-(4-{[(2R)-2-(4-fluorophenyl)propanoyl]amino}phenyl)[1,2,4]triazolo[1,5-α]pyridin-2-yl][2-methoxy-4-(methylsulfonyl)phenyl]carbamoyl}oxy)methyl L-leucinate hydrochloride] | – | – | 0.0 | – |
